Data: patent US6747057B2 (priority 2001, dated 2004)

Assays:
GSK-3 = type: biochemical; conditions: read-out: IC50 GSK-3 inhibition
[1] = test system: Tau phosphorylation in primary cultured cerebellar neurones; assay: cells; type: cell-based; conditions: Rattus norvegicus, 16 h, read-out: IC50 Tau phosphorylation inhibition in neurones measured by Tau-1 immunoreactivity

| SMILES | melting point [°C] | IC50 (GSK-3) [nM] | IC50 [1] [nM] |
| --- | --- | --- | --- |
| O=C(c1ccc(I)cc1)C(Br)Br [Compound 45, 2,2 -Dibromo-1-(4-iodo-phenyl)-ethanone] | 77 to 78 | 2000 |  |
| Cc1ccsc1C(=O)CCl [Compound 18, 2-chloro-1-(3-methyl-thiophen-2-yl)-ethanone] |  | 75000 |  |
| O=C(CCl)c1cc(Cl)c(Cl)s1 [Compound 2, 2-Chloro-1-(4,5-dichloro-thiophen-2-yl)-ethanone] |  | 2500 |  |
| O=C(CCl)c1cccs1 [Compound 10, 2-Chloro-1-thiophen-2-yl-ethanone] |  | 50000 |  |
| N#Cc1cccc(C(=O)C(Br)Br)c1 [Compound 44, 3-(2,2-Dibromo-acetyl)-benzonitrile] |  | 1000 |  |
| CC(=O)c1csc(C(=O)CCl)c1 [Compound 20, 1-(4-Acetyl-thiophen-2-yl)-2-chloro-ethanone] | 118 to 119 | 8000 |  |
| O=C(CCl)c1csc(C(=O)CCl)c1 [Compound 9, 2-Chloro-1-[4-(2-chloro-acetyl)-thiophen-2-yl]-ethanone] | 154 to 155 | 1500 |  |
| O=C(CCl)c1ccccc1 [Compound 25, 2-Chloro-1-phenyl-ethanone] |  | 50000 |  |
| Cc1c(C(=O)CCl)csc1C(=O)CCl [Compound 16, 2-Chloro-1-[5-(2-chloro-acetyl)-4-methyl-thiophen-3-yl]-ethanone] | 155 to 156 | 2500 |  |
| CC(=O)c1ccc(C(=O)CCl)s1 [Compound 19, 1-(5-Acetyl-thiophen-2-yl)-2-chloro-ethanone] |  | 50000 |  |
| O=C(CCl)c1cscc1Cl [Compound 4, 2-Chloro-1-(4-chloro-thiophen-3-yl)-ethanone] |  | 25000 |  |
| O=C(CCl)c1c(Br)sc(Cl)c1Cl [Compound 1, 1-(2-Bromo-4,5-dichloro-thiophen-3-yl)-2-chloro-ethanone] |  | 2000 | 30000 |
| N#Cc1ccc(C(=O)C(Br)Br)cc1 [Compound 39, 4-(2,2-Dibromo-acetyl)-benzonitrile] |  | 1500 |  |
| O=C(CCl)c1cc(Cl)sc1Cl [Compound 6, 2-Chloro-1-(2,5-dichloro-thiophen-3-yl)-ethanone] | 43 to 44 | 5000 |  |
| O=C(CBr)c1scc(Br)c1Br [Compound 21, 2-Bromo-1-(3,4-dibromo-thiophen-2-yl)-ethanone] |  | 1000 |  |
| O=C(CBr)c1ccc(Br)cc1 [Compound 28, 2-Bromo-1-(4-bromo-phenyl)-ethanone] |  | 500 |  |

| SMILES | melting point [°C] | IC50 (GSK-3) [nM] | IC50 [1] [nM] |
| --- | --- | --- | --- |
| O=C(CCl)c1c(Br)sc(Br)c1Br [Compound 5, 2-Chloro-1-(2 4,5-tribromo-thiophen-3-yl) -ethanone] |  | 1000 | 30000 |
| O=C(CCl)c1cc(Br)c(Br)s1 [Compound 14, 2-Chloro-1-(4,5-dibromo-thiophen-2-yl)-ethanone] |  | 1000 |  |
| O=C(CBr)c1ccc(N2CCOCC2)cc1 [Compound 42, 2-Bromo-1-(4-morpholin-4-yl-phenyl)-ethanone] |  | 6000 |  |
| O=C(CCl)c1ccc(Br)s1 [Compound 8, 1-(5-Bromo-thiophen-2-yl)-2-chloro-ethanone] |  | 10000 |  |
| O=C(CBr)c1ccc(Br)s1 [Compound 23, 2-Bromo-1-(5-bromo-thiophen-2-yl)-ethanone] |  | 1000 |  |
| O=C(CBr)c1cc(Br)c(Br)s1 [Compound 22, 2-Bromo-1-(4,5-dibromo-thiophen-2-yl)-ethanone] |  | 1000 |  |
| O=C(CBr)c1ccc(-c2ccccc2)cc1 [Compound 33, 1-Biphenyl-4-yl-2-bromo-ethanone] |  | 2500 |  |
| O=C(CBr)c1ccc(C(F)(F)F)cc1 [Compound 40, 2-Bromo-1-(4-trifluoromethyl-phenyl)-ethanone] |  | 5000 |  |
| O=C(CCl)c1scc(Br)c1Br [Compound 15, 2-Chloro-1-(3,4-dibromo-thiophen-2-yl)-ethanone] | 86 to 88 | 500 |  |
| O=C(CBr)c1ccccc1 [Compound 30, 2-Bromo-1-phenyl-ethanone] |  | 5000 |  |
| O=C(CBr)c1ccc(Br)c(Br)c1 [Compound 27, 2-Bromo-1-(3,4-dibromo-phenyl)-ethanone] | 60 to 61 | 750 |  |
| Nc1c(Br)cc(C(=O)CBr)cc1Br [Compound 47, 1-(4-Amino-3,5-dibromo-phenyl)-2-bromo-ethanone] | 146 to 147 | 3000 |  |
| Cc1sc(C(=O)CCl)cc1C(=O)CCl [Compound 11, 2-Chloro-1-[4-(2-chloro-acetyl)-5-methyl-thiophen-2-yl]-ethanone] |  | 5000 |  |
| O=C(CCl)c1ccc(Cl)cc1 [Compound 24, 2-Chloro-1-(4-chloro-phenyl)-ethanone] |  | 2500 |  |
| O=C(c1ccc(C(F)(F)F)cc1)C(Br)Br [Compound 41, 2,2-Dibromo-1-(4-trifluoromethyl-phenyl)-ethanone] | 40 to 41 | 5000 |  |
| O=C(CCl)c1cc(Br)cs1 [Compound 3, 1-(4-Bromo-thiophen-2-yl)-2-chloro-ethanone] |  | 3000 |  |
